Data published in patent US20260345621A1, “GABAA RECEPTOR MODULATORS AND USES THEREOF” (Engrail Therapeutics, Inc., priority 2022, published 2026).
Entries after “also recorded” stand apart in the source; their conditions may differ.

How the values were obtained:
alertness/sedation = experiment: MOAA/S (Modified Observer's Assessment Alertness/Sedation); type: in vivo, human (healthy volunteers)
Method: (§1) A clinical study was developed to evaluate safety, tolerability, pharmacokinetics, and pharmacodynamics of Compound 1 at plasma steady-state in 40 healthy human volunteers. Compound 1 (provided as Compound 1 phosphate) was administered to participants as multiple ascending doses of 0.5 mg (N=6), 1.0 mg (N=6), 1.5 mg (N=6), 2.0 mg (N=6), or 5.0 mg (N=6) once daily (QD) for 12 days.
Safety and tolerability of Compound 1 were assessed through listings and summaries by Compound 1 dose versus placebo (observed and change from baseline where applicable) for the following measures: treatment-emergent adverse events (TEAEs), clinical laboratory evaluation, vital signs, electrocardiogram, physical examination, pregnancy test, C-SSRS, and MOAA/S (Modified Observer's Assessment Alertness/Sedation). Continuous safety data were summarized with descriptive statistics (n, arithmetic mean, standard deviation (SD), median, minimum, and maximum) by dose level. Categorical safety data were summarized with incidence counts and percentages by dose level.
No clear difference from placebo in sedation across ascending Cohorts according to objective MOAA/S (Modified Observer's Assessment Alertness/Sedation) scoring was observed. A decrease in the MOAA/S score for alertness/sedation indicates impaired participant alertness and increased sedation as objectively determined by a clinician. […] For Compound 1 5.0 mg, a MOAA/S score of 2 (“Responds only after mild prodding or shaking”) was assessed for 1 participant. For the other participants in the Compound 1 5.0 mg Cohort and all other Cohorts, MOAA/S scores were above 3 indicating no difference from placebo in sedation across ascending Cohorts.

CNS function (NEUROCART) = type: in vivo, human (healthy volunteers)
Method: (§2) A clinical study was developed to evaluate safety, tolerability, pharmacokinetics, and pharmacodynamics of Compound 1 at plasma steady-state in 40 healthy human volunteers. […].
(§3) Pharmacodynamic analyses included the NEUROCART® assessments, cognitive assessments Visual Verbal Learning Task (VVLT), and quantitative electroencephalography (qEEG). All PD analyses were based on the PD Analysis Set. For all PD endpoints, the baseline was calculated as average of the Day −1 measurements.
(§4) NEUROCART®, VVLT, and qEEG assessments were listed and summarized (absolute and change from baseline) using descriptive statistics at baseline and at each post-baseline time point. To establish whether significant treatment effects could be detected on the repeatedly measured NEUROCART® parameters, each parameter was analyzed with a mixed model analysis of covariance (ANCOVA) with treatment, time, and treatment by time as fixed factors, participant as a random factor, and the (average) baseline measurement as a covariate.

[1] = tested on: memory (Visual Verbal Learning Task); type: in vivo, human (healthy volunteers); conditions: oral QD 12 days; dose and day in value
Method: as §2, §3, §4

EEG power = experiment: Quantitative electroencephalography (qEEG); type: in vivo, human (healthy volunteers)
Method: as §1, §3, §4

[2] = tested on: anxiety (elevated plus maze); experiment: Elevated plus maze (EPM)
[3] = target: human GABAA receptor α2/β2/γ2 (Homo sapiens, UniProt P18507+P47869); experiment: SyncroPatch platform, PAM mode, GABAA α2/β2/γ2
[4] = target: human GABAA receptor α2/β3/γ2 (Homo sapiens, UniProt P18507+P47869); experiment: SyncroPatch platform, PAM mode, GABAA α2/β3/γ2
[5] = target: human GABAA receptor α5/β3/γ2 (Homo sapiens, UniProt P18507+P31644); experiment: SyncroPatch platform, PAM mode, GABAA α5/β3/γ2
EEG spectral bands = experiment: Pharmaco-EEG spectral analysis in wirelessly implanted rats
[6] = oral QD 12 days, dose and day in value
[7] = Frontal-Parietal cortex, Quiet Wake

human GABAA receptor α5/β3/γ2, sequence (P31644 32-462): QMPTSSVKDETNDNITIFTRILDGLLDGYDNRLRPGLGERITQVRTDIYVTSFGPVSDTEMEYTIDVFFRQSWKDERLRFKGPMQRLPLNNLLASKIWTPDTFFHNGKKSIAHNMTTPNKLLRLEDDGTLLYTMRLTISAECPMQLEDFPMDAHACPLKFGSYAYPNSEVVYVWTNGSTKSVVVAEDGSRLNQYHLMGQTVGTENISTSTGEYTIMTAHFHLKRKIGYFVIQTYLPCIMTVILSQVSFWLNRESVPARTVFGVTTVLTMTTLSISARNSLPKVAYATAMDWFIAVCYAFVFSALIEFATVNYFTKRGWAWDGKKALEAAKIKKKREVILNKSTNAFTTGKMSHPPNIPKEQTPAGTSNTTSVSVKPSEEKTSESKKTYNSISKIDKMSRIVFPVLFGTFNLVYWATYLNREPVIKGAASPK
human GABAA receptor α5/β3/γ2, sequence (P18507 40-475): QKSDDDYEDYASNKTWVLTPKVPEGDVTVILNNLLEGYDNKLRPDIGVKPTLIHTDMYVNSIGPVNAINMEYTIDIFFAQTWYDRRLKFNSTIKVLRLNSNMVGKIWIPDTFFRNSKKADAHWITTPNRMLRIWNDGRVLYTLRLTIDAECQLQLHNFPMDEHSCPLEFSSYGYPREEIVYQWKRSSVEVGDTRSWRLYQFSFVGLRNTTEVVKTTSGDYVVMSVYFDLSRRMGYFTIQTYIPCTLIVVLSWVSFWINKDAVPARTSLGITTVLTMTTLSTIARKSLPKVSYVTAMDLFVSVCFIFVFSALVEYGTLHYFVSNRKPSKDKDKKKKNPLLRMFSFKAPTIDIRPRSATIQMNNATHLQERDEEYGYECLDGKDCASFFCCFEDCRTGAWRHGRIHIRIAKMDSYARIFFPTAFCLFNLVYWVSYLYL
human GABAA receptor α5/β3/γ2, sequence (P28472 26-473 partner): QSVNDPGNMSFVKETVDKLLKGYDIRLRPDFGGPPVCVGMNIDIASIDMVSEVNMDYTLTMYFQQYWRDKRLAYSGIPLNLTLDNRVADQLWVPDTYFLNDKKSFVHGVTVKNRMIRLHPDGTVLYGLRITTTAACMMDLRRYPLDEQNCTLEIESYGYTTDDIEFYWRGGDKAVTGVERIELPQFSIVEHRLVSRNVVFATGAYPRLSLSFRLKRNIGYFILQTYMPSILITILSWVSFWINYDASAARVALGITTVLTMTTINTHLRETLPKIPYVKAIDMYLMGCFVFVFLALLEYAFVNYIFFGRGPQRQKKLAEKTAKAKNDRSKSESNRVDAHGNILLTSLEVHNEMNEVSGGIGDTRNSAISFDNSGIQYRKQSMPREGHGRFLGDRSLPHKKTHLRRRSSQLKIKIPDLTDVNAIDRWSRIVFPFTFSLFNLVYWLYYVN
human GABAA receptor α2/β2/γ2, sequence (P47869 29-451): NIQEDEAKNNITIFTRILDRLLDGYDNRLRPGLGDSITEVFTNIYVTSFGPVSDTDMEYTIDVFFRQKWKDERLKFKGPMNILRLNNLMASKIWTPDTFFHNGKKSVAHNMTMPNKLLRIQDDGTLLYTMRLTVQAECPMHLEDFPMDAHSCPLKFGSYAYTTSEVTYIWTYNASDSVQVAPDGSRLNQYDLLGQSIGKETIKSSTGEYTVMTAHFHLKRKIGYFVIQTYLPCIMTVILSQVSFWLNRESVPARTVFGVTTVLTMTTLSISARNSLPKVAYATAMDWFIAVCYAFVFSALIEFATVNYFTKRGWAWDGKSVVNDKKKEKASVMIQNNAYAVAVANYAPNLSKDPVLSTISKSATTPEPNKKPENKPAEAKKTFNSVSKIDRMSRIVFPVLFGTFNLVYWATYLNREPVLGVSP
human GABAA receptor α2/β2/γ2, sequence (P18507 40-475): as the sequence (P18507 40-475) above
human GABAA receptor α2/β2/γ2, sequence (P47870 25-512 partner limits assumed): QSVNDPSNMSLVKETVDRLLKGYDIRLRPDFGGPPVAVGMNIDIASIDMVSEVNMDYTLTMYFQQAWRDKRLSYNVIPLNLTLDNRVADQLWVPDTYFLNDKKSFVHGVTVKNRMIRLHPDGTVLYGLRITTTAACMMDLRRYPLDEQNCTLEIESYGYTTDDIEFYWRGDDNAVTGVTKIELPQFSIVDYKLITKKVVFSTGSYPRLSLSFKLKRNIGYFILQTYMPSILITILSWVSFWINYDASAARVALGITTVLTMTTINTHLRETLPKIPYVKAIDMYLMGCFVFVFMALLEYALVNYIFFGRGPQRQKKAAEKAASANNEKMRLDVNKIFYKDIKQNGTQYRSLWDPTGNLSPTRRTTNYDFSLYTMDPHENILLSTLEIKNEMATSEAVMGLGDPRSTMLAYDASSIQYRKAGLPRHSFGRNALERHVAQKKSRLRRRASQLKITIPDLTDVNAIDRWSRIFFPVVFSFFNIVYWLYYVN
human GABAA receptor α2/β3/γ2, sequence (P47869 29-451): as the sequence (P47869 29-451) above
human GABAA receptor α2/β3/γ2, sequence (P18507 40-475): as the sequence (P18507 40-475) above
human GABAA receptor α2/β3/γ2, sequence (P28472 26-473 partner): as the sequence (P28472 26-473 partner) above

CC(C)(O)c1cnn2c(-c3ccc(F)c(-c4c(F)cccc4C#N)c3)cnc2n1 [Compound 1, 2′,6-difluoro-5′-(3-(2-hydroxypropan-2-yl)imidazo[1,2-b][1,2,4]triazin-7-yl)-[1,1′-biphenyl]-2-carbonitrile]
MOAA/S score (alertness/sedation; 5.0 mg, 1 participant): 2 | sedation versus placebo by MOAA/S (alertness/sedation; 0.5-5.0 mg oral QD 12 days): little to no impairment of alertness and no frank sedation; also recorded: did not demonstrate a difference from placebo in sedation | MOAA/S score (alertness/sedation; other participants at 5.0 mg and all other Cohorts): above 3 | consistency of effects on SPV, body sway, VAS perception and feeling high (CNS function (NEUROCART); 1.5 mg Cohort): less consistent effects | VAS mood or VAS calmness (CNS function (NEUROCART); oral QD 12 days, any dose, Day 1 or Day 12): Did not affect VAS mood or VAS calmness at any dose on either Day 1 or Day 12 | VAS external perception and VAS internal perception (Bowdle) (CNS function (NEUROCART); [6]): remained unaffected at 1.0 mg, 2.0 mg, and 5.0 mg but significantly increased at 1.5 mg on Day 1 and Day 12 | VAS feeling high (Bowdle) (CNS function (NEUROCART); [6]): significantly increased at 0.5 mg on Day 1 and Day 12, and at 1.5 mg on Day 12 with no apparent dose-related effect | body sway (CNS function (NEUROCART); [6]): significantly increased body sway at 5.0 mg on Day 1; also recorded: Significantly increased body sway at the highest dose level of 5.0 mg on Day 1 but not on Day 12; also recorded: significantly increased body sway at 5.0 mg acutely | left pupil/iris ratio (CNS function (NEUROCART); [6]): Significantly reduced left pupil/iris ratio at 1.0 mg, 1.5 mg, and 5.0 mg on Day 1 but not on Day 12 | saccadic reaction time (CNS function (NEUROCART); [6]): Significantly increased saccadic reaction time only at the highest dose level of 5.0 mg on Day 1, but not on Day 12 | smooth pursuit eye movements (CNS function (NEUROCART); [6]): Significantly decreased smooth pursuit eye movements at 0.5 mg, 1.5 mg, and 5.0 mg on Day 1 but not on Day 12 | delayed word recognition [1]: Significantly decreased delayed word recognition but not immediate recall or delayed recall at 2.0 mg on Day 12, but not on Day 1 | immediate recall and delayed recall/recognition [1]: Significantly decreased immediate recall and decreased delayed recall/recognition at 5.0 mg on Day 1, but not on Day 12 | reaction time for delayed word recognition [1]: Significantly increased reaction time for delayed word recognition at 1.5 mg on Day 1, but not on Day 12; also recorded: inconsistent effects on reaction time for delayed word recognition up to 1.5 mg | EEG gamma-power Pz-O2 (eyes open) (EEG power; any dose level): No treatment effect on Pz-O2 (eyes open) for any dose level | EEG beta-power Pz-O1 or Pz-O2 (eyes open and closed) (EEG power; any dose, Day 1 or Day 12): No treatment effect on Pz-O1 or Pz-O2 (eyes open and eyes dosed) at any dose on Day 1 or Day 12 | EEG alpha-power Fz-Cz (eyes closed) (EEG power; dose and day in value): Significant decrease in Fz-Cz (eyes dosed) at 1.5 mg, 2.0 mg, and 5.0 mg on Day 12 | EEG alpha-power Fz-Cz (eyes open) (EEG power; dose and day in value): Significant decrease in Fz-Cz (eyes open) at 1.5 mg on Day 1 and at 1.5 mg, 2.0 mg, and 5.0 mg on Day 12 | EEG alpha-power Pz-O1 (eyes closed) (EEG power; dose and day in value): Significant decrease in Pz-O1 (eyes closed) at 1.5 mg on Day 1 and at 1.5 mg, 2.0 mg, and 5.0 mg on Day 12 | EEG alpha-power Pz-O1 (eyes open) (EEG power; dose and day in value): Significant decrease in Pz-O1 (eyes open) at 1.5 mg, 2.0 mg, and 5.0 mg on Day 12 | EEG alpha-power Pz-O2 (eyes closed) (EEG power; dose and day in value): Significant decrease in Pz-O2 (eyes dosed) at 1.5 mg, 2.0 mg, and 5.0 mg on Day 12 | EEG alpha-power Pz-O2 (eyes open) (EEG power; dose and day in value): Significant decrease in Pz-O2 (eyes open) at 1.5 mg, 2.0 mg, and 5.0 mg on Day 12 | EEG beta-power Fz-Cz (eyes closed) (EEG power; dose and day in value): Significant increase in Fz-Cz (eyes closed) at 2.0 mg and 5.0 mg on Day 1 but at none of the doses on Day 12 | EEG beta-power Fz-Cz (eyes open) (EEG power; dose and day in value): Significant increase in Fz-Cz (eyes open) at 2.0 mg and 5.0 mg on Day 1 and at 0.5 mg, 2.0 mg, and 5.0 mg on Day 12 | EEG delta-power Fz-Cz (eyes closed) (EEG power; dose and day in value): Significant decrease in Fz-Cz (eyes closed) at all dose levels on Day 12 | EEG delta-power Fz-Cz (eyes open) (EEG power; dose and day in value): Significant decrease in Fz-Cz (eyes open) only at 1.0 mg on Day 12 | EEG delta-power Pz-O1 (eyes closed) (EEG power; dose and day in value): Significant decrease in Pz-O1 (eyes closed) at 1.0 mg, 1.5 mg, 2.0 mg, and 5.0 mg on Day 12 | EEG delta-power Pz-O1 and Pz-O2 (eyes open) (EEG power; dose and day in value): Significant decrease in Pz-O1 and Pz-O2 (eyes open) at 1.5 mg, 2.0 mg, and 5.0 mg on Day 12 | EEG delta-power Pz-O2 (eyes closed) (EEG power; dose and day in value): Significant decrease in Pz-O2 (eyes closed) at all dose levels on Day 12 | EEG gamma-power Fz-Cz (eyes closed and eyes open) (EEG power; dose and day in value): Significant increase in Fz-Cz (eyes closed and eyes open) at 2.0 mg on Day 1 and at 2.0 mg and 5.0 mg on Day 12 | EEG gamma-power Pz-O1 (eyes closed and eyes open) (EEG power; dose and day in value): Significant decrease in Pz-O1 (eyes dosed and eyes open) at 1.5 mg, 2.0 mg, and 5.0 mg on Day 1 | EEG gamma-power Pz-O2 (eyes closed) (EEG power; dose and day in value): No treatment effect on Pz-O2 (eyes closed) for any dose level except for 5.0 mg on Day 12 | EEG theta-power Fz-Cz (eyes closed and eyes open) (EEG power; dose and day in value): Significant decrease in Fz-Cz (eyes closed and eyes open) at 1.0 mg, 1.5 mg, 2.0 mg, and 5.0 mg on Day 12 | EEG theta-power Pz-O1 and Pz-O2 (eyes closed and eyes open) (EEG power; dose and day in value): Significant decrease in Pz-O1 and Pz-O2 (eyes closed and eyes open) at 1.5 mg, 2.0 mg, and 5.0 mg on Day 12 | most consistent effects on qEEG (EEG power; doses >1.5 mg, Day 12): decreased alpha- and theta-power on Day 12 that were suggestive of dose- or concentration-dependence and target engagement, but the increased beta-power on Day 12 did not suggest dose- or concentration-dependence; also recorded: decreased alpha- and theta-power, and increased beta-power | anxiolytic effect, chronic dosing ([2]; once daily for fourteen days, tested 1 hr after last dose): anxiolytic-like in rodents after acute and sub-chronic (14 days) dosing without any loss of effect | effect compared with reference anxiolytic chlordiazepoxide ([2]; oral): equivalent to what was demonstrated by the reference anxiolytic compound, chlordiazepoxide | distance traveled in the open arms ([2]; oral, 0.1, 0.3 and 1 mg/kg): increased distance traveled in the open arms | EC50 [3]: 0.8 nM | Emax [3]: 50% | EC50 [4]: 0.82 nM | Emax [4]: 89% | EC50 [5]: 0.2 nM | Emax [5]: 96% | EEG spectral power change (EEG spectral bands; Frontal-Frontal cortex, Active and Quiet Wake): increased beta, low and high gamma | EEG spectral power change (EEG spectral bands; Frontal-Frontal cortex, NREM): decreased theta and alpha; also recorded: decreased delta and increased low and high gamma | duration of EEG effects (EEG spectral bands; Frontal-Frontal cortex, NREM, Compound 1 high dose PO, Lorazepam 1 mg/kg IP): 48 h | EEG spectral power change (EEG spectral bands; Frontal-Frontal cortex, REM): increased beta | EEG spectral power change (EEG spectral bands; Frontal-Parietal cortex, Active Wake): decreased alpha but increased beta, low and high gamma | EEG spectral power change (EEG spectral bands; Frontal-Parietal cortex, NREM): decreased delta, theta, and alpha; also recorded: increase in low and high gamma | duration of delta and theta effects (EEG spectral bands; Frontal-Parietal cortex, NREM): 48 h | duration of increase in low and high gamma (EEG spectral bands; Frontal-Parietal cortex, NREM): 48 h | EEG spectral power change (EEG spectral bands; [7]): decreased delta but increased beta, low and high gamma | duration of EEG effects (EEG spectral bands; [7]): 48 h | EEG spectral power change (EEG spectral bands; Frontal-Parietal cortex, REM): decreased theta and alpha but increased beta and low gamma | decrease in delta/theta power (EEG spectral bands; Non-REM sleep): 40% | delta and theta power (EEG spectral bands; Non-REM sleep, all doses, ANOVA w Dunnett's): significant decreases in delta and theta power across all doses | EEG profile (EEG spectral bands; oral dosing, rats): EEG changes indicative of an anxiolytic profile | sedation / anxiolytic profile (EEG spectral bands; sleep-wake pattern and EEG profile analysis): non-sedative anxiolytic profile | EEG spectral power change (EEG spectral bands; summary, Active Wake): increased low gamma and decreased alpha (Parietal ctx) | EEG spectral power change (EEG spectral bands; summary, Non-REM): suppressed power in low frequencies (Delta, Theta, and Alpha) and increased higher frequencies (gamma) | EEG spectral power change (EEG spectral bands; summary, Quiet Wake): increased beta and low gamma | EEG spectral power change (EEG spectral bands; summary, REM): increased beta
